From PMC3937722, “Biochemical studies on a versatile esterase that is most catalytically active with polyaromatic esters” (Microbial Biotechnology, 2014)

test system: T1, CN1E1; test: ester hydrolysis kinetics; type: biochemical, uncultured bacterium; conditions: 5 mM EPPS pH 8.0, 40°C
T1 construct: catalytic triad Ser155, Asp250, His280
Source text: ester hydrolysis kinetics on CN1E1

Km [µM]	Compound
1470 ± 50	COC(=O)c1ccc2cc3ccccc3cc2c1 [Anthracene-2-carboxylic acid methyl ester]
1640 ± 80	CC(=O)OCC(COC(C)=O)OC(C)=O [Triacetin]
940 ± 50	CC(=O)Oc1ccccc1 [Phenyl acetate]
640 ± 60	O=Cc1ccc(C(=O)OCc2ccccc2)cc1 [Benzoic acid, 4-formyl-, phenylmethyl ester]
1060 ± 60	COC(=O)/C=C/c1cc(O)ccc1O [2,5-Dihydroxycinnamic acid methyl ester]
710 ± 60	Naphthalene carboxylic acid methyl ester
1140 ± 60	CCOC(=O)c1ccc(O)c(O)c1 [Protocatechuic acid ethyl ester]
1080 ± 50	CC(=O)OC[C@H]1OC=C[C@@H](OC(C)=O)[C@@H]1OC(C)=O [Tri-O-acetyl-D-glucal]

Compound	Km [µM]
CCCCOC(C)=O [Butyl acetate]	2100 ± 170
COC(=O)c1cc2ccccc2c2ccccc12 [Methyl phenanthrene-9-carboxylate]	530 ± 30
COC(=O)c1ccc2ccc3ccccc3c2c1 [Methyl phenanthrene-3-carboxylate]	1600 ± 90
COC(=O)CBr [Methyl bromoacetate]	1700 ± 90
COC(=O)c1ccccc1C(=O)OC [Dimethyl phthalate]	1590 ± 100

test system: T1, CN1E1; test: ester hydrolysis kinetics, p-nitrophenol release; type: biochemical, uncultured bacterium; conditions: pH 7.0 (b12; table heading says pH 8.0), 40°C
Source text: ester hydrolysis kinetics, p-nitrophenol release on CN1E1

Km [µM]	Compound
190 ± 10	CC(=O)Oc1ccc([N+](=O)[O-])cc1 [pNP-acetate]
